In ChEMBL document CHEMBL1126635, “Mechanistic interpretation of the genotoxicity of nitrofurans (antibacterial agents) using quantitative structure-activity relationships and comparative molecular field analysis” (J Med Chem, 1993):

What was measured:
Escherichia coli = assay: Genotoxicity (SOSIP) on Escherichia coli PQ37 (SOS induction potential data, as a measure of genotoxicity); type: functional
Salmonella typhimurium [1] = assay: Mutagenicity in Salmonella Typhimurium TA100 was determined; type: functional, Salmonella enterica subsp. enterica serovar Typhimurium
Salmonella typhimurium [2] = assay: Mutagenicity in Salmonella Typhimurium TA98 was determined; type: functional, Salmonella enterica subsp. enterica serovar Typhimurium
Salmonella typhimurium [3] = assay: Mutagenicity inSalmonella Typhimurium TA100 was determined; type: functional, Salmonella enterica subsp. enterica serovar Typhimurium
Salmonella typhimurium [4] = assay: Mutagenicity inSalmonella Typhimurium TA98 was determined; type: functional, Salmonella enterica subsp. enterica serovar Typhimurium

SMILES	Log SOSIP (Escherichia coli)	Log TA100 (Salmonella typhimurium [1])	Log TA98 (Salmonella typhimurium [2])	Log TA100 (Salmonella typhimurium [3])	Log TA98 (Salmonella typhimurium [4])
O=[N+]([O-])c1cc2cc3c(cc2o1)CCCC3	2.25	3.11	2.63	–	–
COc1cc2oc([N+](=O)[O-])cc2c2ccccc12	3.86	3.59	3.28	–	–
O=[N+]([O-])c1cc2cc3ccc4cccc5ccc(c2o1)c3c45	3.72	–	–	–	–
Cc1c([N+](=O)[O-])oc2cc3c(cc12)CCCC3	3.41	4.54	3.32	–	–
Cc1c([N+](=O)[O-])oc2c3c(ccc12)CCCC3	3.28	4.38	2.46	–	–
O=[N+]([O-])c1cc2c(ccc3cc4ccccc4cc32)o1	4.87	–	3.95	–	–
CCCCc1c([N+](=O)[O-])oc2ccc3ccccc3c12	4.28	–	–	–	–
COc1ccc2ccc3oc([N+](=O)[O-])cc3c2c1Br	4.46	–	–	–	–
CC(=O)Cc1c([N+](=O)[O-])oc2ccc3ccccc3c12	3.43	–	–	–	–
O=[N+]([O-])c1cc2c(cc3ccc4cccc5ccc2c3c45)o1	5	–	–	–	–
COC(=O)Cc1ccc2c(ccc3oc([N+](=O)[O-])cc32)c1	3.18	–	–	–	–
CCc1c([N+](=O)[O-])oc2ccc3ccccc3c12	4.32	–	4.18	–	–
CC(C)c1c([N+](=O)[O-])oc2ccc3ccccc3c12	3.74	–	–	–	–
COc1ccc2ccc3oc([N+](=O)[O-])cc3c2c1	4.25	5.58	4.75	–	–
CC(=O)c1ccc2c(ccc3oc([N+](=O)[O-])cc32)c1	3.72	–	–	–	–
O=[N+]([O-])c1cc2ccc3cc4ccccc4cc3c2o1	4.08	–	3.88	–	–
O=[N+]([O-])c1cc2cc3ccccc3c(Br)c2o1	3.04	2.67	3.31	–	–
COc1ccc2cc3c(ccc4oc([N+](=O)[O-])cc43)cc2c1	4.77	–	4.86	–	–
O=[N+]([O-])c1oc2ccc3ccccc3c2c1-c1ccccc1	4.43	–	–	–	–
COc1ccc2ccc3oc([N+](=O)[O-])cc3c2c1OC	4.2	–	–	–	–
Cc1c([N+](=O)[O-])oc2ccc3ccccc3c12	4.91	6.71	4.91	–	–
Cc1c([N+](=O)[O-])oc2ccc3cc(Br)ccc3c12	4.81	–	–	–	–
Cc1c([N+](=O)[O-])oc2ccccc12	1.2	3.7	–	–	–

SMILES	Log SOSIP (Escherichia coli)	Log TA100 (Salmonella typhimurium [1])	Log TA98 (Salmonella typhimurium [2])	Log TA100 (Salmonella typhimurium [3])	Log TA98 (Salmonella typhimurium [4])
COc1ccc2oc(-c3ccc([N+](=O)[O-])o3)cc2c1	3.08	–	–	–	–
O=[N+]([O-])c1oc2ccc3ccccc3c2c1CCO	3.78	–	3.59	–	–
Cc1c([N+](=O)[O-])oc2ccc3c(c12)CCCC3	2.11	3.78	3.08	–	–
O=[N+]([O-])c1cc2c(ccc3ccccc32)o1	3.96	–	–	4.31	3.33
COc1ccc2c(ccc3oc([N+](=O)[O-])c(C)c32)c1	4.7	–	–	–	–
O=[N+]([O-])c1cc2c(ccc3cc(Br)ccc32)o1	4.64	4.16	3.61	–	–
CC(=O)Oc1ccc2c(ccc3oc([N+](=O)[O-])cc32)c1	3	–	–	–	–
COc1cccc2cc3cc([N+](=O)[O-])oc3cc12	2.96	3.07	3.44	–	–
Cc1c([N+](=O)[O-])oc2c1ccc1ccccc12	4.34	–	–	–	–
O=[N+]([O-])c1cc2c(ccc3cc(O)ccc32)o1	3.58	–	–	–	–
O=[N+]([O-])c1cc2ccc3c(c2o1)CCCC3	1.93	2.95	2.59	–	–
COc1ccc2oc([N+](=O)[O-])cc2c1	1.89	2.8	1.74	–	–
COc1ccc2c(C)c([N+](=O)[O-])oc2c1	2.28	3.54	–	–	–
O=[N+]([O-])c1cc2c3c(ccc2o1)CCCC3	2.08	2.81	2.11	–	–
Cc1ccc2c(ccc3oc([N+](=O)[O-])cc32)c1	3.95	–	–	–	–
Cc1c([N+](=O)[O-])oc2cc3ccccc3cc12	3.34	–	–	–	–
O=[N+]([O-])c1cc2ccccc2o1	1.53	1.54	1.3	–	–
COc1ccc2c(ccc3oc([N+](=O)[O-])cc32)c1Br	3.43	–	–	–	–
COc1cc2cc([N+](=O)[O-])oc2c2ccccc12	3.45	4.26	3.25	–	–
CCOC(=O)COc1ccc2c(ccc3oc([N+](=O)[O-])cc32)c1	3.18	–	–	–	–
COc1cc2ccccc2c2cc([N+](=O)[O-])oc12	4.04	4.66	4.2	–	–
COc1ccc2c(ccc3oc([N+](=O)[O-])cc32)c1	4.23	5.31	4.9	–	–
O=[N+]([O-])c1cc2cc(Cl)c3ccccc3c2o1	2.97	3.96	3.82	–	–
